{
  "source": "paper PMC4657098",
  "about": "“A Review of the Updated Pharmacophore for the Alpha 5 GABA(A) Benzodiazepine Receptor Model” (International Journal of Medicinal Chemistry, 2015)",
  "key": {"σ1": {"biological_target": "T1, σ1 (Homo sapiens, UniProt Q99720)", "T1 construct": "purchased NIMH PDSP (Psychoactive Drug Screening Program, Roth lab, Case Western Reserve)", "experiment": "PDSP receptor binding, σ1", "conditions": "PDSP primary screen at 10 µM"}, "MDR": {"test_system": "MDR", "experiment": "PDSP receptor binding, MDR", "conditions": "PDSP primary screen at 10 µM"}, "Beta2": {"biological_target": "T2, Beta2 (Homo sapiens, UniProt P07550)", "T2 construct": "purchased NIMH PDSP (Psychoactive Drug Screening Program, Roth lab, Case Western Reserve)", "experiment": "PDSP receptor binding, Beta2", "conditions": "PDSP primary screen at 10 µM"}, "DAT": {"biological_target": "T3, DAT (Homo sapiens, UniProt Q01959)", "T3 construct": "purchased NIMH PDSP (Psychoactive Drug Screening Program, Roth lab, Case Western Reserve)", "experiment": "PDSP receptor binding, DAT", "conditions": "PDSP primary screen at 10 µM"}, "M5": {"biological_target": "T4, M5 (Homo sapiens, UniProt P08912)", "T4 construct": "purchased NIMH PDSP (Psychoactive Drug Screening Program, Roth lab, Case Western Reserve)", "experiment": "PDSP receptor binding, M5", "conditions": "PDSP primary screen at 10 µM"}, "Imidaz oline": {"test_system": "Imidaz oline", "experiment": "PDSP receptor binding, Imidazoline", "conditions": "PDSP primary screen at 10 µM"}, "Beta1": {"biological_target": "T5, Beta1 (Homo sapiens, UniProt P08588)", "T5 construct": "purchased NIMH PDSP (Psychoactive Drug Screening Program, Roth lab, Case Western Reserve)", "experiment": "PDSP receptor binding, Beta1", "conditions": "PDSP primary screen at 10 µM"}, "D3": {"biological_target": "T6, D3 (Homo sapiens, UniProt P35462)", "T6 construct": "purchased NIMH PDSP (Psychoactive Drug Screening Program, Roth lab, Case Western Reserve)", "experiment": "PDSP receptor binding, D3", "conditions": "PDSP primary screen at 10 µM"}, "α2A": {"biological_target": "T7, α2A (Homo sapiens, UniProt P08913)", "T7 construct": "purchased NIMH PDSP (Psychoactive Drug Screening Program, Roth lab, Case Western Reserve)", "experiment": "PDSP receptor binding, α2A", "conditions": "PDSP primary screen at 10 µM"}, "α5β3γ2 GABAA receptor": {"biological_target": "T8, α5β3γ2 GABAA receptor (Homo sapiens, UniProt P18507+P31644)", "T8 construct": "expressed in transfected cells; host or cells: Xenopus oocytes", "experiment": "Oocyte electrophysiology, α5β3γ2", "type": "cell-based"}, "mice": {"test_system": "mice", "set-up": "method as in earlier work", "conditions": "cited from earlier work"}, "α2C": {"biological_target": "T9, α2C (Homo sapiens, UniProt P18825)", "T9 construct": "purchased NIMH PDSP (Psychoactive Drug Screening Program, Roth lab, Case Western Reserve)", "experiment": "PDSP receptor binding, α2C", "conditions": "PDSP primary screen at 10 µM"}, "5ht1e": {"biological_target": "T10, 5ht1e (Homo sapiens, UniProt P28566)", "T10 construct": "purchased NIMH PDSP (Psychoactive Drug Screening Program, Roth lab, Case Western Reserve)", "experiment": "PDSP receptor binding, 5ht1e", "conditions": "PDSP primary screen at 10 µM"}, "H4": {"biological_target": "T11, H4 (Homo sapiens, UniProt Q9H3N8)", "T11 construct": "purchased NIMH PDSP (Psychoactive Drug Screening Program, Roth lab, Case Western Reserve)", "experiment": "PDSP receptor binding, H4", "conditions": "PDSP primary screen at 10 µM"}, "CB2": {"biological_target": "T12, CB2 (Homo sapiens, UniProt P34972)", "T12 construct": "purchased NIMH PDSP (Psychoactive Drug Screening Program, Roth lab, Case Western Reserve)", "experiment": "PDSP receptor binding, CB2", "conditions": "PDSP primary screen at 10 µM"}, "H1": {"biological_target": "T13, H1 (Homo sapiens, UniProt P35367)", "T13 construct": "purchased NIMH PDSP (Psychoactive Drug Screening Program, Roth lab, Case Western Reserve)", "experiment": "PDSP receptor binding, H1", "conditions": "PDSP primary screen at 10 µM"}, "M1": {"biological_target": "T14, M1 (Homo sapiens, UniProt P11229)", "T14 construct": "purchased NIMH PDSP (Psychoactive Drug Screening Program, Roth lab, Case Western Reserve)", "experiment": "PDSP receptor binding, M1", "conditions": "PDSP primary screen at 10 µM"}, "H3": {"biological_target": "T15, H3 (Homo sapiens, UniProt Q9Y5N1)", "T15 construct": "purchased NIMH PDSP (Psychoactive Drug Screening Program, Roth lab, Case Western Reserve)", "experiment": "PDSP receptor binding, H3", "conditions": "PDSP primary screen at 10 µM"}, "α3β3γ2 GABAA/BzR": {"biological_target": "α3β3γ2 GABAA/BzR (Homo sapiens, UniProt P18507+P34903)", "experiment": "Competition binding to HEK cell membranes, α3β3γ2", "set-up": "expressed in transfected cells", "conditions": "Figure 5; read-out: Ki α3"}, "5ht7": {"biological_target": "T16, 5ht7 (Homo sapiens, UniProt P34969)", "T16 construct": "purchased NIMH PDSP (Psychoactive Drug Screening Program, Roth lab, Case Western Reserve)", "experiment": "PDSP receptor binding, 5ht7", "conditions": "PDSP primary screen at 10 µM"}, "5ht2b": {"biological_target": "T17, 5ht2b (Homo sapiens, UniProt P41595)", "T17 construct": "purchased NIMH PDSP (Psychoactive Drug Screening Program, Roth lab, Case Western Reserve)", "experiment": "PDSP receptor binding, 5ht2b", "conditions": "PDSP primary screen at 10 µM"}, "α2B": {"biological_target": "T18, α2B (Homo sapiens, UniProt P18089)", "T18 construct": "purchased NIMH PDSP (Psychoactive Drug Screening Program, Roth lab, Case Western Reserve)", "experiment": "PDSP receptor binding, α2B", "conditions": "PDSP primary screen at 10 µM"}, "M3": {"biological_target": "T19, M3 (Homo sapiens, UniProt P20309)", "T19 construct": "purchased NIMH PDSP (Psychoactive Drug Screening Program, Roth lab, Case Western Reserve)", "experiment": "PDSP receptor binding, M3", "conditions": "PDSP primary screen at 10 µM"}, "5ht2a": {"biological_target": "T20, 5ht2a (Homo sapiens, UniProt P28223)", "T20 construct": "purchased NIMH PDSP (Psychoactive Drug Screening Program, Roth lab, Case Western Reserve)", "experiment": "PDSP receptor binding, 5ht2a", "conditions": "PDSP primary screen at 10 µM"}, "MOR": {"biological_target": "T21, MOR (Homo sapiens, UniProt P35372)", "T21 construct": "purchased NIMH PDSP (Psychoactive Drug Screening Program, Roth lab, Case Western Reserve)", "experiment": "PDSP receptor binding, MOR", "conditions": "PDSP primary screen at 10 µM"}, "SERT": {"biological_target": "T22, SERT (Homo sapiens, UniProt P31645)", "T22 construct": "purchased NIMH PDSP (Psychoactive Drug Screening Program, Roth lab, Case Western Reserve)", "experiment": "PDSP receptor binding, SERT", "conditions": "PDSP primary screen at 10 µM"}, "5ht1a": {"biological_target": "T23, 5ht1a (Homo sapiens, UniProt P08908)", "T23 construct": "purchased NIMH PDSP (Psychoactive Drug Screening Program, Roth lab, Case Western Reserve)", "experiment": "PDSP receptor binding, 5ht1a", "conditions": "PDSP primary screen at 10 µM"}, "α6β3γ2 GABAA/BzR": {"biological_target": "α6β3γ2 GABAA/BzR (Homo sapiens, UniProt P18507+Q16445)", "experiment": "Competition binding to HEK cell membranes, α6β3γ2", "set-up": "expressed in transfected cells", "conditions": "Figure 5; read-out: Ki α6"}},
  "note": "“Also recorded” adds a separate entry of the source.",
  "data": [
    {"smiles": "CCc1ccc2c(c1)C(=O)N(C)Cc1c(C(=O)OCCCOC(=O)c3ncn4c3CN(C)C(=O)c3cc(CC)ccc3-4)ncn1-2", "note": "[XLi-356 (10), 1,3-Bis(8-ethyl-5,6-dihydro-5-methyl-6-oxo-4H-imidazo[1,5a][1,4]benzodiazepine-3-carboxy) propyl diester]", "values": [
      {"measurement": "σ1 binding", "setting": "σ1", "value": "∗ (“∗” indicates “primary missed” (<50% inhibition at 10 µM))"},
      {"measurement": "MDR binding", "setting": "MDR", "value": "∗ (“∗” indicates “primary missed” (<50% inhibition at 10 µM))"},
      {"measurement": "Beta2 binding", "setting": "Beta2", "value": "∗ (“∗” indicates “primary missed” (<50% inhibition at 10 µM))"},
      {"measurement": "DAT binding", "setting": "DAT", "value": "∗ (“∗” indicates “primary missed” (<50% inhibition at 10 µM))"},
      {"measurement": "M5 binding", "setting": "M5", "value": "∗ (“∗” indicates “primary missed” (<50% inhibition at 10 µM))"},
      {"measurement": "Imidaz oline binding", "setting": "Imidaz oline", "value": "∗ (“∗” indicates “primary missed” (<50% inhibition at 10 µM))"},
      {"measurement": "Beta1 binding", "setting": "Beta1", "value": "∗ (“∗” indicates “primary missed” (<50% inhibition at 10 µM))"},
      {"measurement": "D3 binding", "setting": "D3", "value": "∗ (“∗” indicates “primary missed” (<50% inhibition at 10 µM))"},
      {"measurement": "α2A binding", "setting": "α2A", "value": "∗ (“∗” indicates “primary missed” (<50% inhibition at 10 µM))"},
      {"measurement": "efficacy type at the α5 subtype", "setting": "α5β3γ2 GABAA receptor", "value": "weak agonist-antagonist"},
      {"measurement": "audio cued fear conditioning", "setting": "mice", "value": "no activity; also recorded: not able to reverse"},
      {"measurement": "α2C binding", "setting": "α2C", "value": "∗ (“∗” indicates “primary missed” (<50% inhibition at 10 µM))"},
      {"measurement": "5ht1e binding", "setting": "5ht1e", "value": "∗ (“∗” indicates “primary missed” (<50% inhibition at 10 µM))"},
      {"measurement": "H4 binding", "setting": "H4", "value": "∗ (“∗” indicates “primary missed” (<50% inhibition at 10 µM))"},
      {"measurement": "CB2 binding", "setting": "CB2", "value": "∗ (“∗” indicates “primary missed” (<50% inhibition at 10 µM))"},
      {"measurement": "H1 binding", "setting": "H1", "value": "∗ (“∗” indicates “primary missed” (<50% inhibition at 10 µM))"},
      {"measurement": "M1 binding", "setting": "M1", "value": "∗ (“∗” indicates “primary missed” (<50% inhibition at 10 µM))"},
      {"measurement": "H3 binding", "setting": "H3", "value": "∗ (“∗” indicates “primary missed” (<50% inhibition at 10 µM))"},
      {"measurement": "Ki", "setting": "α3β3γ2 GABAA/BzR", "value": 8.55, "unit": "µM"},
      {"measurement": "5ht7 binding", "setting": "5ht7", "value": "∗ (“∗” indicates “primary missed” (<50% inhibition at 10 µM))"},
      {"measurement": "5ht2b binding", "setting": "5ht2b", "value": "∗ (“∗” indicates “primary missed” (<50% inhibition at 10 µM))"},
      {"measurement": "α2B binding", "setting": "α2B", "value": "∗ (“∗” indicates “primary missed” (<50% inhibition at 10 µM))"},
      {"measurement": "M3 binding", "setting": "M3", "value": "∗ (“∗” indicates “primary missed” (<50% inhibition at 10 µM))"},
      {"measurement": "5ht2a binding", "setting": "5ht2a", "value": "∗ (“∗” indicates “primary missed” (<50% inhibition at 10 µM))"},
      {"measurement": "MOR binding", "setting": "MOR", "value": "∗ (“∗” indicates “primary missed” (<50% inhibition at 10 µM))"},
      {"measurement": "SERT binding", "setting": "SERT", "value": "∗ (“∗” indicates “primary missed” (<50% inhibition at 10 µM))"},
      {"measurement": "5ht1a binding", "setting": "5ht1a", "value": "∗ (“∗” indicates “primary missed” (<50% inhibition at 10 µM))"},
      {"measurement": "Ki", "setting": "α6β3γ2 GABAA/BzR", "value": 5, "unit": "µM"}
    ]}
  ]
}
